From article PMC8540097, “Novel Oleanolic Acid-Tryptamine and -Fluorotryptamine Amides: From Adaptogens to Agents Targeting In Vitro Cell Apoptosis” (Plants, 2021)
Several values for one entry are separate records, joined by “and”; a condition that tells them apart may be missing. Identical values can stand only once. Like-named read-outs stand apart in the source and are kept apart here.

How the values were obtained:
[1] = test system: CEM (T-lymphoblastic leukemia); assay: Cytotoxicity screening test, CEM cells (resazurin, 72 h); format: cell-based; details: Homo sapiens, CCRF-CEM
Protocol: (§1) The screening human cancer cell lines used in this investigation were CEM (T-lymphoblastic leukemia), MCF7 (breast carcinoma), HeLa (cervical carcinoma) and G-361 (malignant melanoma) from the European Collection of Authenticated Cell Cultures (Salisbury, UK). Human foreskin fibroblasts (BJ) were used as reference cells, and they were a kind gift from Prof. Bartek from Danish Cancer Society Center (Copenhagen, Denmark). Cells were cultured in DMEM (Dulbecco’s Modified Eagle Medium) or in RPMI 1640 medium (CEM). Media used were supplemented with 10% fetal or 20% (CEM) bovine serum, L-glutamine (2 mM), and 1% penicillin-streptomycin mixture (all from Sigma, MO, USA). The cell lines were maintained under standard cell culture conditions at 37 °C and 5% CO2 in a humid environment. Cells were subcultured twice or three times a week using the standard trypsinization procedure. A description of the experimental procedure used in the cytotoxicity screening tests was already published. The cell viability was measured after 72 h using resazurin (Sigma, St. Louis, MO, USA).

[2] = test system: MCF7 (breast carcinoma); assay: Cytotoxicity screening test, MCF7 cells (resazurin, 72 h); format: cell-based, human
Protocol: as §1

[3] = test system: HeLa (cervical carcinoma); assay: Cytotoxicity screening test, HeLa cells (resazurin, 72 h); format: cell-based, human
Protocol: as §1

[4] = test system: G-361 (malignant melanoma); assay: Cytotoxicity screening test, G-361 cells (resazurin, 72 h); format: cell-based, human
Protocol: as §1

[5] = Cytotoxicity screening test, BJ reference fibroblasts (resazurin, 72 h); format: cell-based; details: human, BJ foreskin fibroblasts (normal reference cells)
Protocol: as §1

[6] = test system: cervical carcinoma cells (HeLa); assay: Flow cytometric analysis of cell cycle and apoptosis, HeLa cells; format: cell-based, human; details: 24 h
Protocol: (§2) A flow cytometric analysis, SDS–polyacrylamide gel electrophoresis and immunoblotting, and activities of caspase-3/7 were used to detect apoptosis in cervical carcinoma cells (HeLa) and malignant melanoma cells (G-361) treated for 24 h with 3a–3c (c = 3, 10 and 30 µM). The DNA content of HeLa or G-361 treated with 3a–3c for 24 h were analyzed using flow cytometry. Cells (HeLa and G-361), treated with the same concentrations of compounds for 24 h, were analyzed using electrophoresis and Western blotting, and the activity of caspase-3/7 by the standard methods. All experimental details of these methods were described in our recent paper.
Figure 1 Flow cytometric analysis of cell cycle of HeLa cancer cells (A) and apoptosis (B). Flow cytometric analysis of cell cycle (A) and apoptosis (B) of human cervical carcinoma cells (HeLa) after 24 h with 3a–3c (3, 10 and 30 µM). The bars 0 means control untreated cells, the bars 0+ means control with DMSO. The experiment was repeated at least twice in triplicates. All data were analyzed by statistical software. Significance is indicated with an asterisk (*) (p ˂ 0.05).

[7] = test system: malignant melanoma cells (G-361); assay: Flow cytometric analysis of cell cycle and apoptosis, G-361 cells; format: cell-based, human; details: G-361, 24 h
Protocol: as §2
3. Apoptosis in human cancer cells.
A detailed description of investigation of apoptosis in the HeLa and G-361 cancer cells is given in the main text of this paper. Because the results achieved with the G-361 cancer cells appeared to be less pronounced than those achieved with the HeLa cells, Figures S1A, S1B, S2 and S3 showing the results with G-361 cells are presented in the Supplementary material.
Figure S1A and S1B. Flow cytometric analysis of cell cycle (A) and apoptosis (B) of human malignant melanoma cells (G-361) after 24 h with 3a–3c (3, 10 and 30 µM). The bars 0 means control untreated cells, the bars 0+ means control with DMSO. Error bars are omitted for graph clarity. Experiment was repeated at least twice in duplicates.
Figure S1A. Flow cytometric analysis of cell cycle of G-361 cancer cells.
(1 picture or pasted object on this page, not shown here)

[8] = test system: caspase-3/7 in HeLa cells; assay: Activity of caspase-3/7 in HeLa cells; format: cell-based, human; details: 24 h, c = 30 µM, versus control
Protocol: as §2
Figure 3 Activity of caspase-3/7. Activity of caspase-3/7 after 24 h treatment with 3a–3c (3, 10 and 30 µM) in HeLa cells. The bars 0 are control untreated cells, the bars 0+ are control cells with DMSO. The experiment was repeated at least twice in duplicates. All data were analyzed by statistical software. Significance is indicated with an asterisk (*) (p ˂ 0.05).

[9] = Homo sapiens, MCF7, 72 h, resazurin, read-out: Cytotoxicity IC50, MCF7
[10] = Homo sapiens, HeLa, resazurin, read-out: Cytotoxicity IC50, HeLa
[11] = Homo sapiens, G-361, 72 h, resazurin, read-out: Cytotoxicity IC50, G-361
[12] = Homo sapiens, MCF7, resazurin, read-out: Cytotoxicity IC50, MCF7
[13] = Homo sapiens, G-361, resazurin, read-out: Cytotoxicity IC50, G-361
[14] = Homo sapiens, HeLa, individual runs, Table S1, read-out: Cytotoxicity IC50, HeLa, single repeated screening runs (italics)
[15] = individual runs, Table S1, read-out: Cytotoxicity IC50, HeLa, single repeated screening runs (italics)
[16] = individual runs, Table S1, read-out: Cytotoxicity IC50, G361, single repeated screening runs (italics)
[17] = individual runs, Table S1, read-out: Cytotoxicity IC50, MCF7, single repeated screening runs (italics)

Row | SMILES | IC50 [1] | IC50 [2, 9] | IC50 [3, 10] | IC50 [4, 11] | IC50 at 72 h [5] | IC50 [3, 14] | IC50 [3, 15] | IC50 [4, 16] | Effect on cell cycle ([6]; c = 30 µM) | melting point | further results
1 | CC1(C)CC[C@]2(C(=O)O)CC[C@]3(C)C(=CC[C@@H]4[C@@]5(C)CC[C@H](O)C(C)(C)[C@@H]5CC[C@]43C)[C@@H]2C1 [Compound 1, (3β)-3-hydroxyolean-12-en-28-oic acid, reference compound] | > 50 µM | > 50 µM | > 50 µM | > 50 µM | > 50 µM |  |  |  |  |  | 
2 | CC(=O)O[C@H]1CC[C@]2(C)[C@H]3CC=C4[C@@H]5CC(C)(C)CC[C@]5(C(=O)O)CC[C@@]4(C)[C@]3(C)CC[C@H]2C1(C)C [Compound 2, (3β)-3-(acetyloxy)olean-12-en-28-oic acid] | > 50 µM |  | > 50 µM |  | > 50 µM |  |  |  |  |  | IC50 [2, 12]: > 50 µM; IC50 [4, 13]: > 50 µM
3 | CC(=O)O[C@H]1CC[C@]2(C)[C@H]3CC=C4[C@@H]5CC(C)(C)CC[C@]5(C(=O)NCCc5c[nH]c6ccccc56)CC[C@@]4(C)[C@]3(C)CC[C@H]2C1(C)C [Compound 3a, Tryptamine amide of (3β)-3-(acetyloxy)olean-12-en-28-oic acid] | > 50 µM | > 50 µM | 8.7 ± 0.4 µM | 9 ± 0.4 µM | > 50 µM | 8.4 µM | 9 µM | 9.2 µM | cell cycle arrest in the G2/M phase |  | IC50 ([4]; Homo sapiens, G-361, 72 h, individual runs, Table S1, read-out: Cytotoxicity IC50, G361, single repeated screening runs (italics)): 8.7 µM; Induction of apoptosis (apoptotic cells) ([6]; c = 30 µM): 4%; Level of apoptotic cells in subG1 phase [7]: up to 7.7%; Effect on cell cycle ([7]; c = 10 µM): increase of accumulation of the S-phase cells; Induction of caspase-3/7 activity [8]: up to 4 times
4 | CC(=O)O[C@H]1CC[C@]2(C)[C@H]3CC=C4[C@@H]5CC(C)(C)CC[C@]5(C(=O)NCCc5c[nH]c6cc(F)ccc56)CC[C@@]4(C)[C@]3(C)CC[C@H]2C1(C)C [Compound 3b] | > 50 µM | > 50 µM | 6.7 ± 1.4 µM | 15.9 ± 6.6 µM | > 50 µM |  | 7.7 µM and 13.1 µM and 5.7 µM | > 50 µM and 23 µM and 9.9 µM and 14.9 µM | increased the number of cells in the G2/M phase | 139 to 140 °C | Induction of apoptosis (apoptotic cells) ([6]; c = 10 µM): up to 6.4%; Level of apoptotic cells in subG1 phase [7]: increased the level of apoptotic cells; Effect on cell cycle ([7]; c = 10 µM): increase of accumulation of the S-phase cells; Induction of caspase-3/7 activity [8]: up to 4.6 times
5 | CC(=O)O[C@H]1CC[C@]2(C)[C@H]3CC=C4[C@@H]5CC(C)(C)CC[C@]5(C(=O)NCCc5c[nH]c6ccc(F)cc56)CC[C@@]4(C)[C@]3(C)CC[C@H]2C1(C)C [Compound 3c] | > 50 µM | > 50 µM | 12.2 ± 4.7 µM | > 50 µM | > 50 µM |  | 10.4 µM and 17.6 µM and 8.7 µM |  | increased the number of cells in the G2/M phase | 138 to 139 °C | Induction of apoptosis (apoptotic cells) ([6]; c = 30 µM): 2.7%; Effect on cell cycle ([7]; c = 3 µM): increase of accumulation of the S-phase cells
6 | CC1(C)CCC2(C(=O)NCCc3c[nH]c4ccccc34)CCC3(C)C(=CCC4C5(C)CCC(O)C(C)(C)C5CCC43C)C2C1 (stereo not drawn) [Compound 4a] | > 50 µM | > 50 µM | > 50 µM | > 50 µM | > 50 µM |  | 20.4 µM and > 50 µM (2×) | > 50 µM (2×) and 19.7 µM |  |  | 
7 | CC1(C)CCC2(C(=O)NCCc3c[nH]c4cc(F)ccc34)CCC3(C)C(=CCC4C5(C)CCC(O)C(C)(C)C5CCC43C)C2C1 (stereo not drawn) [Compound 4b] | > 50 µM | > 50 µM | 27.9 ± 0.8 µM | > 50 µM | > 50 µM | 27.3 µM | 28.5 µM and > 50 µM |  |  | 149 to 150 °C | IC50 ([2]; Homo sapiens, MCF7, 72 h, individual runs, Table S1, read-out: Cytotoxicity IC50, MCF7, single repeated screening runs (italics)): 44.5 µM; IC50 [2, 17]: > 50 µM
8 | CC1(C)CCC2(C(=O)NCCc3c[nH]c4ccc(F)cc34)CCC3(C)C(=CCC4C5(C)CCC(O)C(C)(C)C5CCC43C)C2C1 (stereo not drawn) [Compound 4c] | > 50 µM | 13.5 ± 3.3 µM | 20.3 ± 7.6 µM | > 50 µM | > 50 µM | 14.9 µM | 29 µM and 17.1 µM |  |  | 147 to 148 °C | IC50 [2, 17]: 31.8 µM and > 50 µM and 11.2 µM and 15.8 µM
9 | NCCc1c[nH]c2ccccc12 [tryptamine] | > 50 µM |  | > 50 µM |  | > 50 µM |  |  |  |  |  | IC50 [2, 12]: > 50 µM; IC50 [4, 13]: > 50 µM
